Results: BindingDB's records for patent US12378192 (Chia Tai Tianqing Pharmaceutical Group Co., 2025)

Target: Cytochrome P450 3A4 (Homo sapiens, UniProt P08684)
Experiment: CYP450 Enzyme Induction Study
Experimental: A final incubation system of 500 μL contained 50 μL of liver microsomes (protein concentration: 0.2 mg/mL, Corning), 1 μL of mixed specific substrates of CYP450 (CYP1A2, CYP2B6, CYP2C9, CYP2C19, CYP2D6, CYP3A4), 398 μL of PBS (pH 7.4), 1 μL of specific positive inhibitor (positive control) or test compound (in acetonitrile) and 50 μL of NADPH+MgCl2. Samples were prepared in duplicate of 0.5 mL for each CYP450 subtype. For each tube, the 450 μL mixed solution of substrates and enzyme and the NADPH solution were separately pre-incubated at 37° C. for 5 min. The 50 μL mixed solution of NADPH+MgCl2 was added for reaction. At 30 min, 50 μL of the mixture was taken and 300 μL of glacial acetonitrile containing an internal standard was added to terminate the reaction. Additionally, 2 blanks of 500 μL each were prepared in parallel without adding NADPH as the negative control group.

Chain of Cytochrome P450 3A4 (P08684 whole entry): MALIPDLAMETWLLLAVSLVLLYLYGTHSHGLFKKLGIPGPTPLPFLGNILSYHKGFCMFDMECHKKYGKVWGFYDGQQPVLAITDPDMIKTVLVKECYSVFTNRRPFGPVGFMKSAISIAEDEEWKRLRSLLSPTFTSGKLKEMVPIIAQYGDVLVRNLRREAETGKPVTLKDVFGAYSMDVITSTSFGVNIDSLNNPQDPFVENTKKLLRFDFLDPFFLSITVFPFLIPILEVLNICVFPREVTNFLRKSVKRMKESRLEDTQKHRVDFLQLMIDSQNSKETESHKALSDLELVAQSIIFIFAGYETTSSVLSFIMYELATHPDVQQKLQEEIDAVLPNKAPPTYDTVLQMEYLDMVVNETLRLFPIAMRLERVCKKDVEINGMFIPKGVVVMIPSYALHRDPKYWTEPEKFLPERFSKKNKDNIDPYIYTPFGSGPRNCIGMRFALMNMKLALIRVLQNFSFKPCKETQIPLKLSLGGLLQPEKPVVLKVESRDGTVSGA

- IC50: > 200 µM
SMILES: Cc1c(C(=O)Nc2ccc(F)c(C#N)c2)c(C)n(C)c1C(=O)C(=O)NC(C)C(F)(F)F (stereo unspecified) [US12378192, Compound of formula I]
